Assay results as given in the supplement of paper PMC10307832.

Tests used:
Assay in all cases: relative viability (nuclei count vs DMSO), 5 days (fraction); higher = more cells survive
XMD8-85 + Pictilisib = compound: CN1CCN(CC1)C2=CC(=C(C=C2)NC3=NC=C4C(=N3)N(C5=CC=CC=C5C(=O)N4C)C)OC [XMD8-85] + CS(=O)(=O)N1CCN(Cc2cc3nc(-c4cccc5[nH]ncc45)nc(N4CCOCC4)c3s2)CC1 [Pictilisib] (partner 1 µM)
Method in brief: (§1)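 After 5 days of treatment, lung cancer cells in 1536-well plates were fixed and stained in a single step (final 0.05% Triton X-100, 1% formaldehyde, 1 ug/ml Hoechst) and their nuclei counted on 4× images. Treatment had been applied by pin tool the day after seeding as one drug alone or as a fixed anchor-drug dose with five library-drug doses (not always all listed) in √10 steps. Relative viability is the nuclei count of treated wells divided by that of vehicle wells, and values are medians of duplicate plates.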

XMD8-85 + Decitabine = compound: CN1CCN(CC1)C2=CC(=C(C=C2)NC3=NC=C4C(=N3)N(C5=CC=CC=C5C(=O)N4C)C)OC [XMD8-85] + Nc1ncn([C@H]2C[C@H](O)[C@@H](CO)O2)c(=O)n1 [Decitabine] (partner 2 µM)
Method in brief: as §1

4EGI-1 + Trametinib = compound: O=C(O)C(Cc1ccccc1[N+](=O)[O-])=NNc1nc(-c2ccc(Cl)c(Cl)c2)cs1 (mixture of isomers) [4EGI-1] + CC(=O)Nc1cccc(-n2c(=O)n(C3CC3)c(=O)c3c(Nc4ccc(I)cc4F)n(C)c(=O)c(C)c32)c1 [Trametinib] (partner 0.02 µM)
Method in brief: as §1

4EGI-1 + AZD7762 = compound: O=C(O)C(Cc1ccccc1[N+](=O)[O-])=NNc1nc(-c2ccc(Cl)c(Cl)c2)cs1 (mixture of isomers) [4EGI-1] + NC(=O)Nc1cc(-c2cccc(F)c2)sc1C(=O)N[C@H]1CCCNC1 [AZD7762] (partner 0.2 µM)
Method in brief: as §1

Cell Line | relative viability (XMD8-85 + Pictilisib; first compound 0.08 µM) | relative viability (XMD8-85 + Pictilisib; first compound 0.253 µM) | relative viability (XMD8-85 + Pictilisib; first compound 0.8 µM) | relative viability (XMD8-85 + Pictilisib; first compound 2.53 µM) | relative viability (XMD8-85 + Pictilisib; first compound 8 µM) | relative viability (XMD8-85 + Decitabine; first compound 0.08 µM) | relative viability (XMD8-85 + Decitabine; first compound 0.253 µM) | relative viability (XMD8-85 + Decitabine; first compound 0.8 µM) | relative viability (XMD8-85 + Decitabine; first compound 2.53 µM) | relative viability (XMD8-85 + Decitabine; first compound 8 µM) | relative viability (4EGI-1 + Trametinib; first compound 0.5 µM) | relative viability (4EGI-1 + Trametinib; first compound 1.581 µM) | relative viability (4EGI-1 + Trametinib; first compound 5 µM) | relative viability (4EGI-1 + Trametinib; first compound 15.81 µM) | relative viability (4EGI-1 + Trametinib; first compound 50 µM) | relative viability (4EGI-1 + AZD7762; first compound 0.5 µM) | relative viability (4EGI-1 + AZD7762; first compound 5 µM) | relative viability (4EGI-1 + AZD7762; first compound 15.81 µM) | relative viability (4EGI-1 + AZD7762; first compound 50 µM) | relative viability (4EGI-1 + AZD7762; first compound 1.581 µM)
NCI-H460 | 0.341 | 0.356 | 0.405 | 0.333 | 0.156 | 0.442 | 0.506 | 0.503 | 0.566 | 0.396 | 0.245 | 0.0821 | 0.109 | 0.133 | 0.018 | 0.572 | 0.705 | 0.24 | 0.302 | 
NCI-H1793 | 0.389 | 0.248 | 0.44 | 0.405 | 0.38 |  | 0.473 | 0.482 | 0.575 | 0.583 | 0.49 | 0.431 | 0.414 | 0.407 | 0.273 | 0.766 | 0.809 | 0.276 | 0.218 | 0.41
LXF-289 | 0.682 |  | 0.82 | 0.874 | 0.781 | 0.409 | 0.371 | 0.369 | 0.423 | 0.352 | 0.716 | 0.669 | 0.61 | 0.622 | 0.583 | 1.05 | 1.06 | 1.04 | 0.545 | 1.1
NCI-H1944 | 0.326 | 0.332 | 0.351 | 0.333 | 0.307 | 0.451 | 0.404 | 0.462 | 0.456 | 0.422 | 0.481 |  | 0.354 | 0.314 | 0.334 | 0.626 | 0.604 | 0.453 | 0.212 | 
NCI-H23 | 0.486 | 0.508 | 0.524 | 0.523 | 0.426 | 0.306 | 0.316 | 0.349 | 0.32 | 0.267 | 0.351 |  | 0.422 | 0.369 | 0.187 | 0.372 | 0.27 | 0.23 | 0.192 | 
LK-2 | 0.531 | 0.439 | 0.574 | 0.361 | 0.458 | 0.255 | 0.295 | 0.268 | 0.246 | 0.232 | 0.841 | 0.529 | 0.944 | 0.75 | 0.609 | 0.543 | 0.451 | 0.344 | 0.177 | 
NCI-H358 | 0.353 | 0.366 | 0.359 | 0.362 | 0.304 | 0.219 | 0.243 | 0.229 | 0.234 | 0.198 | 0.154 | 0.132 | 0.151 | 0.114 | 0.123 | 0.632 | 0.582 | 0.275 | 0.218 | 
NCI-H647 | 0.473 | 0.45 | 0.367 | 0.434 | 0.155 | 0.43 | 0.357 | 0.417 | 0.45 | 0.327 | 0.585 | 0.493 | 0.475 | 0.384 | 0.129 | 0.375 | 0.643 | 0.192 | 0.101 | 
A-427 | 0.683 | 0.808 | 0.813 | 0.737 | 0.527 | 0.601 | 0.596 | 0.546 | 0.573 | 0.539 | 0.891 |  | 0.774 | 0.742 | 0.384 | 0.819 | 0.715 | 0.513 | 0.231 | 
NCI-H1734 | 0.45 | 0.397 | 0.477 | 0.502 | 0.475 |  | 0.519 | 0.528 | 0.591 | 0.464 | 0.73 | 0.521 | 0.684 | 0.761 | 0.483 | 0.596 | 0.573 | 0.32 | 0.178 | 0.455
PC-3 [JPC-3] | 0.717 | 0.666 | 0.766 | 0.879 | 0.672 | 0.93 |  | 0.8 | 1.06 | 0.745 | 0.82 |  | 0.621 | 0.399 | 0.47 | 0.845 | 0.868 | 0.519 | 0.323 | 
LCLC-97TM1 | 0.181 | 0.22 | 0.248 | 0.173 | 0.177 | 0.222 | 0.206 | 0.204 | 0.284 | 0.195 | 0.212 |  | 0.188 | 0.197 | 0.127 | 0.242 | 0.362 | 0.41 | 0.0881 | 
ChaGo-K-1 | 0.808 | 0.692 | 0.689 | 0.697 | 0.303 | 0.553 | 0.521 | 0.551 | 0.525 | 0.45 | 0.911 | 0.845 | 0.896 | 0.942 | 0.592 | 0.875 | 0.876 | 0.897 | 0.465 | 0.87
HCC-366 | 0.137 | 0.239 | 0.146 | 0.168 | 0.304 | 0.342 | 0.302 | 0.375 | 0.511 | 0.393 | 0.454 | 0.272 | 0.429 | 0.262 | 0.0891 | 0.33 | 0.293 | 0.174 | 0.0904 | 0.23
NCI-H1395 | 0.699 | 0.649 | 0.634 | 0.613 | 0.484 | 0.609 | 0.762 | 0.722 | 0.701 | 0.716 | 1.34 |  | 1.06 | 1.1 | 0.7 | 0.44 | 0.393 | 0.344 | 0.374 | 
LOU-NH91 | 0.52 | 0.566 | 0.526 | 0.516 | 0.471 | 0.797 | 0.852 | 0.793 | 0.821 | 0.646 | 0.812 |  | 0.764 | 0.704 | 0.724 | 0.811 | 0.781 | 0.72 | 0.439 | 
NCI-H441 | 0.405 | 0.389 | 0.608 | 0.438 | 0.389 | 0.256 | 0.245 | 0.256 | 0.261 | 0.205 | 0.613 | 0.471 | 0.449 | 0.428 | 0.127 | 1.38 | 1.28 | 1.08 | 0.772 | 1.13
NCI-H2405 | 0.388 | 0.528 | 0.402 | 0.373 | 0.303 | 0.672 | 0.765 | 0.705 | 0.854 | 0.75 | 0.856 |  | 0.703 | 0.771 | 0.482 | 0.746 | 0.851 | 0.692 | 0.285 | 
NCI-H838 | 0.423 | 0.455 | 0.503 | 0.429 | 0.317 | 0.572 | 0.46 | 0.476 | 0.449 | 0.354 | 0.694 | 0.483 | 0.512 | 0.506 | 0.141 | 1.05 | 0.904 | 0.647 | 0.617 | 
HCC-15 | 0.684 | 0.691 | 0.76 | 0.728 | 0.616 | 0.537 | 0.642 | 0.782 | 0.749 | 0.517 | 0.405 | 0.378 | 0.392 | 0.375 | 0.281 | 1.21 | 1.26 | 1.17 | 1.28 | 1.12
EPLC-272H |  | 0.324 | 0.318 | 0.327 | 0.267 | 0.347 | 0.36 | 0.314 | 0.294 | 0.305 | 0.308 |  | 0.339 | 0.249 | 0.226 | 0.264 | 0.239 | 0.151 | 0.0667 | 
NCI-H1755 | 0.369 | 0.426 | 0.448 | 0.552 | 0.357 | 0.754 | 0.677 | 0.714 | 0.764 | 0.724 | 0.773 | 0.802 | 0.711 | 0.72 | 0.556 | 0.441 | 0.457 | 0.344 | 0.252 | 0.411
EMC-BAC-2 | 0.493 | 0.569 | 0.527 | 0.589 | 0.451 | 0.873 | 0.961 |  | 1.05 | 0.887 | 0.989 |  | 0.928 | 0.878 | 0.652 | 1.36 | 1.17 | 1 | 0.599 | 
201T | 0.635 | 0.677 | 0.723 | 0.746 | 0.556 | 0.867 | 0.865 | 0.883 | 0.82 | 0.689 | 0.714 | 0.705 | 0.742 | 0.744 | 0.636 | 0.797 | 0.736 | 0.619 | 0.495 | 0.514
HARA | 0.47 | 0.473 | 0.455 | 0.436 | 0.259 | 0.657 | 0.647 | 0.407 | 0.659 | 0.416 | 0.882 | 0.632 | 0.944 | 0.539 | 0.211 | 0.397 | 0.241 | 0.195 | 0.161 | 0.48
LC-2-ad | 0.433 | 0.497 | 0.543 | 0.483 | 0.276 | 0.734 | 0.774 | 0.811 | 0.772 | 0.514 | 0.919 | 0.886 | 0.855 | 0.843 | 0.595 | 0.855 | 0.917 | 0.3 | 0.208 | 0.866
NCI-H2087 | 0.924 | 0.723 | 0.961 | 0.83 | 0.542 | 0.311 | 0.262 | 0.297 | 0.32 | 0.195 | 0.212 | 0.2 | 0.234 | 0.2 | 0.126 | 1.42 | 1.34 | 1.06 | 0.391 | 1.48
EKVX | 0.454 | 0.467 | 0.416 | 0.451 | 0.441 | 0.536 | 0.32 | 0.33 | 0.61 | 0.328 | 0.436 |  | 0.351 | 0.239 | 0.268 | 0.812 | 0.649 | 0.546 | 0.656 | 
